Results reported in article PMC10489817, “2-Alkyl-Substituted-4-Amino-Thieno[2,3-d]Pyrimidines: Anti-Proliferative Properties to In Vitro Breast Cancer Models” (Molecules, 2023).
“And” between values parts separate entries of the source, which are not always exact repeats. Identical values can stand only once. Like-named read-outs stand apart in the source and are kept apart here.

Legend:
MCF-7 = test: Cell cycle analysis by propidium iodide staining, MCF-7; assay type: cell-based, human; conditions: for cell cycle arrest phase, MCF-7: ER positive cell line; for change of %G1 vs control, MCF-7 / change of %G2 vs control, MCF-7 / change of %S vs control, MCF-7: control = 100%, 24 h; for %G1, MCF-7 / %G2, MCF-7 / %S, MCF-7: treated at IC50, 24 h
Protocol: (§1) Our study continued with the examination of the effect of the newly synthesized compounds’ IC50 values on cell cycle progression. The cell aliquots were collected, and FACS analyses were used to detect the effects of cell treatments with the selected compounds (2, 4, and 5). A propidium iodide staining assay was performed.
(§2) The changes in the cell cycle distribution in % (G1, S, and G2 phases), based on the graphical figures A–C, were calculated and are given in Table 4.
(§3) The cells were trypsinized, suspended in medium + 10% FCS, and centrifuged (1000 rpm, 5 min); then, the pellet was suspended in PBS (1 mL) and fixed with EtOH. The cells were suspended in 2.5 mL pre-cold 70% EtOH and incubated on ice for 15 min. The staining procedure was as follows: the pellet was suspended in a 500 μL PI-solution in PBS and 0.1 mg/mL RNase A, and 0.05% Triton X-100 was added. After incubation for 10 min at 37 °C, the cells were transferred to the flow cytometer and cell fluorescence was measured. The samples were measured by flow cytometry (LSR II, BD Biosciences, Franklin Lakes, NJ, USA) and analyzed using BD FACS DIVA software v. 6.1.3 (BD Biosciences).

MDA-MB-231 [1] = test: Cell cycle analysis by propidium iodide staining, MDA-MB-231; assay type: cell-based, human; conditions: for cell cycle arrest phase, MDA-MB-231: ER negative cell line; for change of %G1 vs control, MDA-MB-231 / change of %G2 vs control, MDA-MB-231 / change of %S vs control, MDA-MB-231: control = 100%, 24 h; for %G1, MDA-MB-231 / %G2, MDA-MB-231 / %S, MDA-MB-231: treated at IC50, 24 h
Protocol: as §1, §2, §3

MCF-10A [2] = test: MTT anti-proliferative test, MCF-10A; assay type: cell-based; conditions: Homo sapiens
Text: (§4) The MCF-10A cell line (normal human mammary epithelial cells) served as a reference control.
(§5) All breast cell lines (MCF-10A, MCF-7, and MDA-MB-231) were purchased from the American Type Culture Collection—ATCC (Manassas, VA, USA). The MCF-7 and MDA-MB-231 were cultivated in Dulbecco’s modified Eagle’s medium (DMEM) and supplemented with 10% fetal bovine serum (FBS), 1% sodium pyruvate, and 1% MEM non-essential amino acids (NEAA) without antibiotics. The non-tumorigenic breast cell line (MCF-10A) was cultivated in DMEM medium (Sigma-Aldrich, St. Louis, MO, USA) and supplemented with 10% FBS, 1% sodium pyruvate, 1% non-essential amino acids (NEAA), 20 ng/mL human epithelia growth factor (hEGF), 10 μg/mL insulin, and 0.5 μg/mL hydrocortisone without antibiotics. All cell lines were maintained in a humidified atmosphere, with 5% CO2 at 37 °C.
(§6) Using the standard MTT-dye reduction assay described by Mosmann, the anti-proliferative activity was tested. The method is based on the metabolism of the tetrazolium salt MTT to insoluble formazan. The formazan absorption was registered using a microplate reader at λ = 540 nm. The measured absorption is an indicator of cell viability and metabolic activity. Anti-proliferative activities were expressed as IC50 values (concentrations required for 50% inhibition of cell growth), calculated using non-linear regression analysis (GraphPad Software, San Diego, CA, USA).

MDA-MB-231 [3] = test: ζ-potential measurement, MDA-MB-231; assay type: cell-based, human; conditions: PBS pH 7.4, 37 °C; more negative after treatment
Protocol: (§7) First, the ζ-potential of each cell line was measured, and all obtained values were negative (Figure 6A). The Student t-test statistical analysis which was applied distinguished the ζ-potentials of the three studied cell lines with p < 0.05, and the values followed the order of MCF-7 > MDA-MB-231 > MCF-10A. […] represents the relative percentage change of the ζ-potential induced by the studied compounds for the different cell lines. Compound 2 was able to decrease the ζ-potential of the cells with the following ranking: MCF-7 (42%) > MCF-10A (24%) > MDA-MB-231 (16%). For compound 4, the ranking was as follows: MCF-10A (50%) > MDA-MB-231 (46%) > MCF-7 (3%). For compound 5, this was MCF-10A (36%) > MCF-7 (22%) > […].
(§8) The zeta (ζ ξ) potential is the electrostatic potential at the shear plane of a cell, and is related to both its surface charge and the local environment. The ζ-potential of the intact cells and the treated ones was recorded in a cell suspension (0.5 × 10^6 cells/mL) in PBS, using the electrophoretic light-scattering technique on a Zetasizer Nano ZS analyzer (Malvern Instruments, Great Britain). Laser Doppler electrophoresis and velocimetry of cells were used to determine the ζ-potential by measuring the speeds of the cells in PBS upon the application of an electric field. The ζ-potential was calculated based on the Helmholtz–Smoluchowski equation. The measurements were performed in a U-shaped cell with gold-plated electrodes at 37 °C.
(§9) Figure 6 ζ-potential of the investigated cell lines, MCF-10A, MCF-7, and MDA-MB-231 (A). Alterations in the ζ-potential after treatment with compounds 2 (pink), 4 (blue), and 5 (green) (B). All zeta potential values were measured in PBS buffer (137 mM NaCl, 2.7 mM KCl, 8 mM Na2HPO4, and 2 mM KH2PO4; pH 7.4) at 37 °C. Two independent experiments were carried out for each cell line, and each sample was measured 6 times. (*; ***) denote p < 0.05 and p < 0.001 as follows. […]

MCF-10A [4] = test: ζ-potential measurement, MCF-10A; assay type: cell-based, human; conditions: PBS pH 7.4, 37 °C; more negative after treatment
Protocol: as §7, §8, §9

MDA-MB-231 [5] = test: MTT anti-proliferative test, MDA-MB-231; assay type: cell-based, human; conditions: for SI (selective index) MDA-MB-231: IC50 MCF-10A/IC50 MDA-MB-231
Text: as §4, §5, §6

[6] = read-out: IC50 MCF-10A (converted)
[7] = read-out: IC50 of Mean ± SD, Anti-Proliferative Activity MCF-10A
[8] = Homo sapiens, MDA-MB-231, MTT, read-out: IC50 MDA-MB-231 (converted)
[9] = Homo sapiens, MDA-MB-231, MTT, read-out: IC50 MDA-MB-231 (text)
[10] = Homo sapiens, MDA-MB-231, MTT, read-out: IC50 of Mean ± SD, Anti-Proliferative Activity MDA-MB-231
[11] = MTT, read-out: IC50 MDA-MB-231 (converted)

CCOC(=O)Cc1nc(N)c2c(C)c(C(=O)OCC)sc2n1 [Compound 2, Ethyl 4-Amino-2-(2-Ethoxy-2-Oxoethyl)-5-Methylthieno[2,3-d]Pyrimidine-6-Carboxylate]
cell cycle arrest phase, MCF-7 (MCF-7): arrest was detected in the G1 phase
change of %G1 vs control, MCF-7 (MCF-7): +11.1%
change of %G2 vs control, MCF-7 (MCF-7): +7.75%
change of %S vs control, MCF-7 (MCF-7): −7.65%
%G1, MCF-7 (MCF-7): 44.9%
%G2, MCF-7 (MCF-7): 10.7%
%S, MCF-7 (MCF-7): 39.8%
cell cycle arrest phase, MDA-MB-231 (MDA-MB-231 [1]): cell cycle arrest in the G2 stage
change of %G1 vs control, MDA-MB-231 (MDA-MB-231 [1]): −17.63%
change of %G2 vs control, MDA-MB-231 (MDA-MB-231 [1]): +53.65%
change of %S vs control, MDA-MB-231 (MDA-MB-231 [1]): +15%
%G1, MDA-MB-231 (MDA-MB-231 [1]): 34.1%
%G2, MDA-MB-231 (MDA-MB-231 [1]): 6.73%
%S, MDA-MB-231 (MDA-MB-231 [1]): 53.6%
IC50 (MCF-10A [2]; [6]): 1700 µM
IC50 (MCF-10A [2]; [7]): 503 ± 16.7 µg/mL
Δζ/ζ relative change of ζ-potential, MDA-MB-231 (MDA-MB-231 [3]): 16.04% and 16%
Δζ/ζ relative change of ζ-potential, MCF-10A (MCF-10A [4]): 24.27% and 24%
melting point: 206 to 207 °C
IC50 (MDA-MB-231 [5]; [8]): 170 µM
IC50 (MDA-MB-231 [5]; [9]): 52.6 µg/mL
IC50 (MDA-MB-231 [5]; [10]): 52.6 ± 3.2 µg/mL
SI (selective index) MDA-MB-231 (MDA-MB-231 [5]): 9.6
IC50 (MDA-MB-231 [5]; [11]): 160 µM

CCOC(=O)c1sc2nc(CC)nc(N)c2c1C [Compound 4, Ethyl 4-Amino-2-Ethyl-5-Methylthieno[2,3-d]Pyrimidine-6-Carboxylate]
cell cycle arrest phase, MCF-7 (MCF-7): arrest was detected in the G1 phase
change of %G1 vs control, MCF-7 (MCF-7): +20%
change of %G2 vs control, MCF-7 (MCF-7): −22.55%
change of %S vs control, MCF-7 (MCF-7): −8.35%
%G1, MCF-7 (MCF-7): 48.5%
%G2, MCF-7 (MCF-7): 7.769%
%S, MCF-7 (MCF-7): 39.5%
cell cycle arrest phase, MDA-MB-231 (MDA-MB-231 [1]): cell cycle arrest in the G2 stage
change of %G1 vs control, MDA-MB-231 (MDA-MB-231 [1]): −29.46%
change of %G2 vs control, MDA-MB-231 (MDA-MB-231 [1]): +44.9%
change of %S vs control, MDA-MB-231 (MDA-MB-231 [1]): +14.4%
%G1, MDA-MB-231 (MDA-MB-231 [1]): 29.2%
%G2, MDA-MB-231 (MDA-MB-231 [1]): 6.35%
%S, MDA-MB-231 (MDA-MB-231 [1]): 53.3%
IC50 (MCF-10A [2]; [6]): 1400 µM
IC50 (MCF-10A [2]; [7]): 367 ± 17.8 µg/mL
Δζ/ζ relative change of ζ-potential, MDA-MB-231 (MDA-MB-231 [3]): 45.51% and 46%
Δζ/ζ relative change of ζ-potential, MCF-10A (MCF-10A [4]): 50.48% and 50%
melting point: 173 to 175 °C
IC50 (MDA-MB-231 [5]; [8]): 200 µM
IC50 (MDA-MB-231 [5]; [9]): 62.9 µg/mL
IC50 (MDA-MB-231 [5]; [10]): 62.9 ± 5.7 µg/mL
SI (selective index) MDA-MB-231 (MDA-MB-231 [5]): 5.8
IC50 (MDA-MB-231 [5]; [11]): 240 µM

CCOC(=O)c1sc2nc(C)nc(N)c2c1C [Compound 5, Ethyl 4-Amino-2,5-Dimethyl-Thieno[2,3-d]Pyrimidine-6-Carboxylate]
cell cycle arrest phase, MCF-7 (MCF-7): arrest was detected in the G1 phase
change of %G1 vs control, MCF-7 (MCF-7): +20.54%
change of %G2 vs control, MCF-7 (MCF-7): −15.7%
change of %S vs control, MCF-7 (MCF-7): −10.2%
%G1, MCF-7 (MCF-7): 48.7%
%G2, MCF-7 (MCF-7): 8.40%
%S, MCF-7 (MCF-7): 38.7%
cell cycle arrest phase, MDA-MB-231 (MDA-MB-231 [1]): cell cycle arrest in the G2 stage
change of %G1 vs control, MDA-MB-231 (MDA-MB-231 [1]): −20%
change of %G2 vs control, MDA-MB-231 (MDA-MB-231 [1]): +45.9%
change of %S vs control, MDA-MB-231 (MDA-MB-231 [1]): +15.45%
%G1, MDA-MB-231 (MDA-MB-231 [1]): 33.1%
%G2, MDA-MB-231 (MDA-MB-231 [1]): 6.439%
%S, MDA-MB-231 (MDA-MB-231 [1]): 53.8%
IC50 (MCF-10A [2]; [6]): 2500 µM
IC50 (MCF-10A [2]; [7]): 618 ± 29.7 µg/mL
Δζ/ζ relative change of ζ-potential, MDA-MB-231 (MDA-MB-231 [3]): 23.31% and 23%
Δζ/ζ relative change of ζ-potential, MCF-10A (MCF-10A [4]): 35.94% and 36%
melting point: 203 to 204 °C
IC50 (MDA-MB-231 [5]; [8]): 1500 µM
IC50 (MDA-MB-231 [5]; [10]): 365 ± 26.6 µg/mL
SI (selective index) MDA-MB-231 (MDA-MB-231 [5]): 1.7
IC50 (MDA-MB-231 [5]; [11]): 1450 µM
